Measurements reported in article PMC11342919 (RSC Advances, 2024).

Key:
[1] = after 2 h
[2] = system: M^pro; conditions: at 100 μM; cited from earlier work

SMILES | starting material consumed by cysteine [1] [%] | inhibition of M^pro [2]
CCCCCCNC(=O)n1cc(F)c(=O)[nH]c1=O [Carmofur] | 75 | –
C=C(CC)C(=O)c1ccc(OCC(=O)O)c(Cl)c1Cl [EA, ethacrynic acid] | – | approximately 20%
